Values after ≈ are worked out from the molar mass of the structure shown. Active and inactive are the calls of the source. No cut-off for these calls is given here.
Tests used:
SK-BR-3 [1] = assay: Growth inhibition of estrogen receptor-deficient human SKBR3 cells at 1 uM after 144 hrs by MTT assay relative to control in presence of 5% serum; assay type: functional; details: SK-BR-3, 144 h, read-out: GI
SK-BR-3 [2] = assay: Growth inhibition of estrogen receptor-deficient human SKBR3 cells at 1 uM after 216 hrs by MTT assay relative to control in presence of 5% serum; assay type: functional; details: SK-BR-3, 216 h, read-out: GI
A549 [3] = assay: Growth inhibition of ERalpha-negative and ERbeta-positive human A549 cells at 10 uM after 72 hrs; assay type: functional; details: A549, 72 h, read-out: GI
HT-29 [4] = assay: Growth inhibition of ERalpha-negative and ERbeta-positive human HT-29 cells at 10 uM after 72 hrs in presence of 10% FCS; assay type: functional; details: HT-29, 72 h, read-out: GI
HeLa [5] = assay: Growth inhibition of human HeLa cells at 1 uM after 96 hrs by MTT assay in presence of 5% serum; assay type: functional; details: read-out: GI
HeLa [6] = assay: Induction of apoptosis in human HeLa cells plated on serum free media for 24 hrs assessed as caspase 3 cleavage at 10 uM after 12 hrs; assay type: functional
PC-3 [7] = assay: Induction of apoptosis in human PC3 cells assessed as decrease in ATP level at 5 uM after 72 hrs by luminescence assay; assay type: functional; set-up: scale not given: the % may be the effect or the level left
[8] = Aqueous solubility of the compound in water at pH 5 by UV spectrophotometric analysis; assay type: physicochemical
KG-1 [9] = assay: Growth inhibition in human KG1 cells expressing p53 gene at 5 uM after 48 hrs by MTT assay; assay type: functional; details: KG-1, 48 h, read-out: GI
MDA-MB-231 [10] = assay: Induction of apoptosis in retinoid-resistant human MDA-MB-231 cells expressing p53 and ERbeta gene assessed as DNA fragmentation at 1 uM after 24 hrs by acridine orange staining method; assay type: functional
HeLa [11] = assay: Induction of apoptosis in human HeLa cells assessed as ATP level at 0.5 uM by luminometric analysis; assay type: functional, cell-based; details: TDE = time-dependent effect
[12] = Aqueous solubility of the compound in PBS at pH 7.2 by UV spectrophotometric analysis; assay type: physicochemical; details: PBS, read-out: solubility
A549 [13] = assay: Induction of apoptosis in human A549 cells assessed as decrease in ATP level at 10 uM after 72 hrs by luminescence assay; assay type: functional, cell-based
MDA-MB-231 [14] = assay: Growth inhibition of retinoid-resistant human MDA-MB-231 cells expressing p53 and ERbeta gene after 48 hrs by MTT assay; assay type: functional, cell-based
HT-29 [15] = assay: Induction of apoptosis in human HT-29 cells assessed as decrease in ATP level at 10 uM after 72 hrs by luminescence assay relative to control; assay type: functional; set-up: scale not given: the % may be the effect or the level left
HT-29 [16] = assay: Induction of apoptosis in human HT-29 cells assessed as decrease in ATP level after 72 hrs by luminescence assay; assay type: functional, cell-based
SK-BR-3 [17] = assay: Induction of apoptosis in estrogen receptor-deficient human SKBR3 cells assessed as DNA fragmentation at 0.5 uM by acridine orange staining; assay type: functional, cell-based; details: TDE = time-dependent effect
MDA-MB-231 [18] = assay: Induction of apoptosis in retinoid-resistant human MDA-MB-231 cells expressing p53 and ERbeta gene assessed as DNA fragmentation after 48 hrs by acridine orange staining method; assay type: functional, cell-based
MDA-MB-231 [19] = assay: Growth inhibition of retinoid-resistant human MDA-MB-231 cells expressing p53 and ERbeta gene at 1 uM after 48 hrs by MTT assay; assay type: functional; details: MDA-MB-231, 48 h, read-out: GI
KG-1 [20] = assay: Growth inhibition in human KG1 cells expressing p53 gene at 1 uM after 48 hrs by MTT assay; assay type: functional; details: KG-1, 48 h, read-out: GI
SK-BR-3 [21] = assay: Induction of apoptosis in estrogen receptor-deficient human SKBR3 cells assessed as DNA fragmentation at 0.5 uM after 48 hrs by acridine orange staining; assay type: functional
MDA-MB-231 [22] = assay: Induction of apoptosis in retinoid-resistant human MDA-MB-231 cells expressing p53 and ERbeta gene assessed as DNA fragmentation at 0.1 to 1 uM by acridine orange staining method; assay type: functional, cell-based; details: TDE = time-dependent effect
SK-BR-3 [23] = assay: Induction of apoptosis in human SKBR3 cells assessed as DNA fragmentation at 1 uM after 72 hrs by acridine orange staining; assay type: functional
A549 [24] = assay: Induction of apoptosis in human A549 cells assessed as decrease in ATP level after 72 hrs by luminescence assay; assay type: functional, cell-based
HT-29 [25] = assay: Induction of apoptosis in human HT-29 cells assessed as decrease in ATP level at 5 uM after 72 hrs by luminescence assay; assay type: functional; set-up: scale not given: the % may be the effect or the level left
[26] = Induction of apoptosis in mouse MMTV-Wnt-1 cells assessed as cell viability after 72 hrs by DAPI staining based cell counting; assay type: functional
A549 [27] = assay: Induction of apoptosis in human A549 cells assessed as decrease in ATP level at 5 uM after 72 hrs by luminescence assay; assay type: functional; set-up: scale not given: the % may be the effect or the level left
MDA-MB-231 [28] = assay: Induction of apoptosis in retinoid-resistant human MDA-MB-231 cells expressing p53 and ERbeta gene assessed as DNA fragmentation at 1 uM after 48 hrs by acridine orange staining method; assay type: functional
PC-3 [29] = assay: Induction of apoptosis in human PC3 cells assessed as decrease in ATP level at 10 uM after 72 hrs by luminescence assay; assay type: functional, cell-based
PC-3 [30] = assay: Induction of apoptosis in human PC3 cells assessed as decrease in ATP level after 72 hrs by luminescence assay; assay type: functional, cell-based
MDA-MB-231 [31] = assay: Growth inhibition of retinoid-resistant human MDA-MB-231 cells expressing p53 and ERbeta gene at 1 uM after 24 hrs by MTT assay; assay type: functional; details: MDA-MB-231, 24 h, read-out: GI
KG-1 [32] = assay: Growth inhibition in human KG1 cells expressing p53 gene at 0.1 to 1 uM after 48 hrs by MTT assay; assay type: functional, cell-based
KG-1 [33] = assay: Induction of apoptosis in human KG1 cells expressing p53 gene assessed as DNA fragmentation at 0.1 to 1 uM after 48 hrs by acridine orange staining method; assay type: functional, cell-based
MDA-MB-231 [34] = assay: Growth inhibition of retinoid-resistant human MDA-MB-231 cells expressing p53 and ERbeta gene at 0.1 to 1 uM by MTT assay; assay type: functional, cell-based; details: TDE = time-dependent effect
KG-1 [35] = assay: Induction of apoptosis in human KG1 cells assessed as DNA fragmentation at 5 uM after 48 hrs by acridine orange staining method; assay type: functional
KG-1 [36] = assay: Induction of apoptosis in human KG1 cells expressing p53 gene assessed as DNA fragmentation at 1 uM after 48 hrs by acridine orange staining method; assay type: functional
HT-29 [37] = assay: Induction of apoptosis in human HT-29 cells assessed as decrease in ATP level at 10 uM after 72 hrs by luminescence assay; assay type: functional; set-up: scale not given: the % may be the effect or the level left
HeLa [38] = assay: Induction of apoptosis in human HeLa cells assessed as ATP level at 1 uM after 72 hrs by acridine orange staining; assay type: functional
HeLa [39] = assay: Induction of apoptosis in human HeLa cells assessed as ATP level at 0.5 uM after 48 hrs by luminometric analysis; assay type: functional
Mus musculus [40] = assay: Toxicity in ICR-SCIDS mouse assessed as increase in body weight at 20 mg/kg, iv qd administered at a 25% increment in dose each day for 7 days measured on day 1; assay type: organism-based; set-up: dose 20 mg/kg, route intravenous; details: in vivo, 168 h
Mus musculus [41] = assay: Toxicity in ICR-SCIDS mouse harboring xenograft assessed as exhibiting symptoms of dehydration at 20 mg/kg, iv qd administered alternate days for a total of 15 doses measured on day 9; assay type: organism-based; set-up: dose 20 mg/kg, route intravenous; details: in vivo
Mus musculus [42] = assay: Toxicity in ICR-SCIDS mouse harboring xenograft assessed as occurrence of diarrhea at 20 mg/kg, iv qd administered alternate days for a total of 15 doses measured on day 9; assay type: organism-based; set-up: dose 20 mg/kg, route intravenous; details: in vivo
Mus musculus [43] = assay: Toxicity in ICR-SCIDS mouse assessed as decrease in body weight at 20 mg/kg, iv qd administered at a 25% increment in dose each day for 7 days measured on day 8 relative to control; assay type: organism-based; set-up: dose 20 mg/kg, route intravenous; scale not given: the % may be the effect or the level left; details: in vivo, 168 h
Mus musculus [44] = assay: Toxicity in ICR-SCIDS mouse harboring xenograft assessed as decreased physical activity at 20 mg/kg, iv qd administered alternate days for a total of 15 doses measured on day 9; assay type: organism-based; set-up: dose 20 mg/kg, route intravenous; details: in vivo
Mus musculus [45] = assay: Toxicity in ICR-SCIDS mouse assessed as increase in body weight at 20 mg/kg, iv qd administered at a 25% increment in dose each day for 7 days measured on day 4; assay type: organism-based; set-up: dose 20 mg/kg, route intravenous; details: in vivo, 168 h
Mus musculus [46] = assay: Toxicity in ICR-SCIDS mouse assessed as decrease in body weight at 20 mg/kg, iv qd administered at a 25% increment in dose each day for 7 days measured on day 7 relative to body weight on day 1; assay type: organism-based; set-up: dose 20 mg/kg, route intravenous; scale not given: the % may be the effect or the level left; details: in vivo, 168 h
Mus musculus [47] = assay: Toxicity in ICR-SCIDS mouse harboring xenograft assessed as body weight loss at 20 mg/kg, iv qd administered alternate days for a total of 15 doses measured on day 9; assay type: organism-based; set-up: dose 20 mg/kg, route intravenous; details: in vivo
Mus musculus [48] = assay: Toxicity in ICR-SCIDS mouse harboring xenograft assessed as occurrence of scruffy coat at 20 mg/kg, iv qd administered alternate days for a total of 15 doses measured on day 9; assay type: organism-based; set-up: dose 20 mg/kg, route intravenous; details: in vivo

## CC1=C(/C=C/C(C)=C/C=C/C(C)=C/C(=O)O)C(C)(C)CCC1 [TRETINOIN]
SK-BR-3 [1]
  inhibition of growth at 1 µM: 36%
SK-BR-3 [2]
  inhibition of growth at 1 µM: 24%
A549 [3]
  inhibition of growth at 10 µM: 5%
HT-29 [4]
  inhibition of growth at 10 µM: 8%
HeLa [5]
  inhibition of growth at 1 µM: 71%
HeLa [6]
  Activity: 87%

## O=C(O)/C=C/c1ccc(-c2ccc(O)c(C34CC5CC(CC(C5)C3)C4)c2)nc1
PC-3 [7]
  Activity: 30%
[8]
  solubility: 7 µM (≈ 2.63 µg/mL)
KG-1 [9]
  inhibition of growth at 5 µM: 90%
MDA-MB-231 [10]
  Activity: 38%
HeLa [11]
  Activity: tde
[12]
  solubility: 14 µM (≈ 5.26 µg/mL)
A549 [13]
  Activity: Active
MDA-MB-231 [14]
  growth inhibition (GI): Dose-dependent effect
HT-29 [15]
  Activity: <60%
HT-29 [16]
  Activity: Dose-dependent effect
SK-BR-3 [17]
  Activity: tde
MDA-MB-231 [18]
  Activity: Dose-dependent effect
MDA-MB-231 [19]
  inhibition of growth at 1 µM: 85%
KG-1 [20]
  inhibition of growth at 1 µM: 85%
SK-BR-3 [21]
  Activity: 1.9%
MDA-MB-231 [22]
  Activity: tde
SK-BR-3 [23]
  Activity: 15%
A549 [24]
  Activity: Dose-dependent effect
HT-29 [25]
  Activity: 30%
[26]
  IC50: 19 nM
A549 [27]
  Activity: 30%
MDA-MB-231 [28]
  Activity: 82%
PC-3 [29]
  Activity: Active
PC-3 [30]
  Activity: Dose-dependent effect
MDA-MB-231 [31]
  inhibition of growth at 1 µM: 86%
KG-1 [32]
  growth inhibition (GI): Active
KG-1 [33]
  Activity: Active
MDA-MB-231 [34]
  growth inhibition (GI): tde
KG-1 [35]
  Activity: 84%
KG-1 [36]
  Activity: 68%
HT-29 [37]
  Activity: >=40%
HeLa [38]
  Activity: 2.6%
HeLa [39]
  Activity: >60%

## O=C(O)/C=C/c1cnc(-c2ccc(O)c(C34CC5CC(CC(C5)C3)C4)c2)nc1
Mus musculus [40]
  Activity: 5.7%
PC-3 [7]
  Activity: 35%
Mus musculus [41]
  Activity: Non-toxic
Mus musculus [42]
  Activity: Non-toxic
Mus musculus [43]
  Activity: 100%
KG-1 [9]
  inhibition of growth at 5 µM: 100%
[12]
  solubility: 0.44 µM (≈ 0.166 µg/mL)
A549 [13]
  Activity: Active
HT-29 [16]
  Activity: Dose-dependent effect
Mus musculus [44]
  Activity: Non-toxic
Mus musculus [45]
  Activity: 5.7%
KG-1 [20]
  inhibition of growth at 1 µM: 100%
Mus musculus [46]
  Activity: 100.9%
Mus musculus [47]
  Activity: Non-toxic
A549 [24]
  Activity: Dose-dependent effect
HT-29 [25]
  Activity: 15%
[26]
  IC50: 60 nM
A549 [27]
  Activity: 35%
PC-3 [29]
  Activity: Active
PC-3 [30]
  Activity: Dose-dependent effect
KG-1 [35]
  Activity: 50%
KG-1 [36]
  Activity: 40%
HT-29 [37]
  Activity: inactive
Mus musculus [48]
  Activity: Non-toxic

Reference: ChEMBL document CHEMBL1811878, “Heteroatom-substituted analogues of orphan nuclear receptor small heterodimer partner ligand and apoptosis inducer (E)-4-[3-(1-Adamantyl)-4-hydroxyphenyl]-3-chlorocinnamic acid” (J Med Chem, 2011)
